Measurements: patent publication US7419965B2, “Nucleotide lipid ester derivatives” (Heidelberg Pharma AG, priority 2003, dated 2008)

How the values were obtained:
Parameters in all cases: species or system nude mice
[1] = system: human colon carcinoma xenograft HCT-15; experiment: Antitumor activity in human colon carcinoma xenograft model (HCT-15) in vivo; conditions: for Tumor weight (median): ip once daily for 5 days from day 8, day 28; for Tumor inhibition: ip once daily for 5 days, day 28, vs vehicle control
Method: The antitumor activity of the nucleotide conjugate and its corresponding nucleoside has been compared in the human colon carcinoma xenograft HCT-15 model in nude mice.
Tumor bearing mice were randomized on day 7 after HCT-15 tumor cell inoculation and were distributed to treatment groups of 9 animals per group. Treatment was started on day 8. The animals were treated intraperitoneally (ip) once daily for 5 consecutive days with the nucleotide conjugate or the nucleoside. Dosages included 50 and 25% of the Maximum Tolerable Doses (MTD′s). Control animals were injected with the corresponding solvents (Vehicle 1 or 2). On day 28, the primary tumors were explanted and the tumor weights were determined.
(§1) Tumor bearing mice were distributed to treatment groups of 9-10 animals per group. Treatment Treatment cycle(s)(one or two) were performed consisting of once daily intraperitoneal administrations for 5 consecutive days. Dosages were in the range of 6.25% and 100% of the Maximum Tolerated Doses (MTD's). Control animals were treated with solvent (vehicle) only, The percentage of tumor inhibition refers to the median tumor size of the vehicle treated control group and dose groups at the end of each experiment.

[2] = system: human breast carcinoma xenograft MDA-MB-231; experiment: Antitumor activity in human breast carcinoma xenograft model (MDA-MB-231) in vivo; conditions: for Tumor inhibition: day 49, vs vehicle control; for Tumor volume (median): orally once daily days 21-25 and 28-32, day 49
Method: The antitumor activity of nucleotide conjugate and its corresponding nucleoside has been compared in the human breast carcinoma xenograft MDA-MB-231 model in nude mice.
Tumor bearing mice were randomized on day 21 after MDA-MB-231 tumor cell inoculation and were distributed to treatment groups of 9 animals per group. Treatment was started on day 21. At this time point the animals had well vascularized tumors of about 400 mg. The animals were treated orally once daily for 2 weeks with nucleotide conjugate and its corresponding nucleoside on days 21-25 and 28-32. Doses ranged from 6.25% to 50% of the Maximum Tolerable Doses (MTD's). Control animals were treated with the solvent (vehicle) only. […]

[3] = system: human prostate carcinoma xenograft PC-3; experiment: Antitumor activity in human prostate carcinoma xenograft model (PC-3) in vivo; conditions: for Tumor inhibition: day 52, vs vehicle control; for Tumor weight (median): ip once daily for 5 days from day 7, day 52
Method: The antitumor activity of nucleoside conjugate and nucleoside has been compared in the human prostate carcinoma xenograft PC-3 model in nude mice.
Tumor bearing mice were randomized on day 7 after PC-3 tumor cell inoculation and were distributed to treatment groups of n=10 animals per group. Treatment was started on day 7. The animals were treated intraperitoneally (ip) once daily for 5 consecutive days with nucleotide conjugate or nucleoside. Dosages included 100 and 50% of the Maximum Tolerable Doses (MTD's). Control animals were treated with the corresponding solvent (vehicle) only. On day 52, the primary tumors were explanted and the tumor weights were determined.
as §1

[4] = system: human ovarian carcinoma xenograft SKOV-3; experiment: Antitumor activity in human ovarian carcinoma xenograft model (SKOV-3) in vivo; conditions: for Tumor inhibition: end of treatment period (day 17), vs vehicle control; for Tumor volume (median): ip once daily day 6-10 and 13-17, end of treatment (day 17)
Method: The antitumor activity of nucleotide conjugate and nucleoside has been compared in the human ovarian carcinoma xenograft SKOV-3 model in nude mice.
(§2) Tumor bearing mice were randomized on day 6 after SKOV-3 tumor cell inoculation and were distributed to treatment groups of 9 animals per group. Treatment was started on day 6. The animals were treated intraperitoneally (ip) once daily on day 6-10 and 13-17 with nucleotide conjugate or nucleoside. Dosages ranged between 6.25 and 100% of the Maximum Tolerable Doses (MTD's). Control animals were treated with solvent (vehicle) only.
as §1

[5] = system: human pancreatic carcinoma xenograft AspC1; experiment: Antitumor activity in human pancreatic carcinoma xenograft model (AspC1) in vivo; conditions: for Tumor inhibition: day 30, vs vehicle control; for Tumor weight (median): ip once daily day 6-10 and 20-23, day 30
Method: The antitumor activity of nucleotide conjugate and nucleoside has been compared in the human pancreatic carcinoma xenograft AspC1 model in nude mice.
as §2, with “AspC1” for “SKOV-3”, “10” for “9”, “20-23” for “13-17”, “included 100” for “ranged between 6.25”, “50%” for “100%”
as §1

[6] = system: human cervix carcinoma xenograft KB-3-1; experiment: Antitumor activity in human cervix carcinoma xenograft model (KB-3-1) in vivo; conditions: for Tumor inhibition: day 29, vs vehicle control; for Tumor volume (median): ip once daily days 8-12, day 29
Method: The antitumor activity of nucleotide conjugate and nucleoside has been compared in the human cervix carcinoma xenograft KB-3-1 model in nude mice.
Tumor bearing mice were randomized on day 8 after KB-3-1 tumor cell inoculation and were distributed to treatment groups of 9 animals per group. Treatment was started on day 8. The animals were treated intraperitoneally (ip) once daily for 5 consecutive days (days 8-12) with nucleotide conjugate or nucleoside. Dosages included 100 and 50% of the Maximum Tolerable Doses (MTD's). Control animals were injected with solvent (Vehicle).
as §1

[7] = 25% MTD (nucleoside 20, conjugate 63 mg/kg/injection)
[8] = 50% MTD (nucleoside 40, conjugate 125 mg/kg/injection)
[9] = HCT-15, Dose 50.00 % MTD as printed in summary table
[10] = HCT-15, Dose 100.00 % MTD as printed in summary table
[11] = 6.25% MTD (nucleoside 2.5, conjugate 12.5 mg/kg)
[12] = 12.50% MTD (nucleoside 5.0, conjugate 25.0 mg/kg)
[13] = 25.00% MTD (nucleoside 10.0, conjugate 50.0 mg/kg)
[14] = 50.00% MTD (nucleoside 20.0, conjugate 100.0 mg/kg)
[15] = 50% MTD (nucleoside 20, conjugate 50 mg/kg/injection)
[16] = 100% MTD (nucleoside 40, conjugate 100 mg/kg/injection)
[17] = 25% MTD (nucleoside 7.5, conjugate 18.8 mg/kg/injection)
[18] = 50% MTD (nucleoside 15.0, conjugate 37.5 mg/kg/injection)
[19] = 100% MTD (nucleoside 30.0, conjugate 75.0 mg/kg/injection)

CCCCCCCCCCCCSCC(COP(=O)(O)OC[C@H]1O[C@@H](n2cnc3c(N)nc(Cl)nc32)[C@@H](F)[C@@H]1O)OCCCCCCCCCC (stereo partly drawn) [Nucleotide conjugate, [2-Chloro-9-(2′-deoxy-2′-fluoro-β-D arabinofuranosyl)adenine]-5′-phosphoric acid-(3-dodecylmercapto-2-decyloxy)propyl ester]
Tumor weight (median) [1, 7]: 257 mg | Tumor inhibition [1, 7]: 62% | Tumor weight (median) [1, 8]: 16 mg | Tumor inhibition [1, 8]: 98% | Tumor inhibition (summary table) [1, 9]: 62% | Tumor inhibition (summary table) [1, 10]: 98% | Antitumor efficacy compared with the corresponding nucleoside ([1]; at both doses): significantly (p<0.01) higher | Activity relative to nucleoside (conclusion) ([1]; conclusion of summary, human colon carcinoma xenograft): Superior activity | Tumor inhibition [2, 11]: 63% | Tumor volume (median) [2, 11]: 1267 mm^3 | Tumor inhibition [2, 12]: 94% | Tumor volume (median) [2, 12]: 196 mm^3 | Tumor inhibition [2, 13]: 97% | Tumor volume (median) [2, 13]: 108 mm^3 | Tumor inhibition [2, 14]: 99% | Tumor volume (median) [2, 14]: 51 mm^3 | Antitumor efficacy compared with the corresponding nucleoside ([2]; at all doses): significantly (p <0.05) higher | Activity relative to nucleoside (conclusion) ([2]; conclusion of summary, MDA-MB-231): Superior activity | Tumor inhibition [3, 15]: 82% | Tumor weight (median) [3, 15]: 92 mg | Tumor inhibition [3, 16]: 87% | Tumor weight (median) [3, 16]: 64 mg | Antitumor efficacy compared with Nucleoside ([3]; at both doses): significantly higher (p<0.01) | Activity relative to nucleoside (conclusion) ([3]; conclusion of summary, PC-3): Superior activity | Tumor inhibition [4, 17]: 44% | Tumor volume (median) [4, 17]: 144 mm^3 | Tumor inhibition [4, 18]: 58% | Tumor volume (median) [4, 18]: 108 mm^3 | Tumor inhibition [4, 19]: 75% | Tumor volume (median) [4, 19]: 63 mm^3 | Antitumor efficacy compared with the nucleoside ([4]; at MTD): significantly higher (p<0.01) | Activity relative to nucleoside (conclusion) ([4]; conclusion of summary, SKOV-3): Superior activity | Tumor inhibition [5, 18]: 65% | Tumor weight (median) [5, 18]: 80 mg | Tumor inhibition [5, 19]: 96% | Tumor weight (median) [5, 19]: 10 mg | Antitumor efficacy compared with Nucleoside ([5]; at both doses): significantly higher (p<0.01) | Activity relative to nucleoside (conclusion) ([5]; conclusion of summary, AspC1): Superior activity | Tumor inhibition [6, 15]: 74% | Tumor volume (median) [6, 15]: 877 mm^3 | Tumor inhibition [6, 16]: 97% | Tumor volume (median) [6, 16]: 104 mm^3 | Antitumor efficacy compared with Nucleoside ([6]; at the MTD): significantly higher (p<0.01) | Activity relative to nucleoside (conclusion) ([6]; conclusion of summary, KB-3-1): Superior activity

Nc1nc(Cl)nc2c1ncn2[C@@H]1O[C@H](CO)[C@@H](O)[C@@H]1F [Nucleoside, 2-Chloro-9-(2′-deoxy-2′-fluoro-β-D arabinofuranosyl)adenine, reference compound]
Tumor weight (median) [1, 7]: 431 mg | Tumor inhibition [1, 7]: 25% | Tumor weight (median) [1, 8]: 329 mg | Tumor inhibition [1, 8]: 42% | Tumor inhibition (summary table) [1, 9]: 25% | Tumor inhibition (summary table) [1, 10]: 42% | Tumor inhibition [2, 11]: 46% | Tumor volume (median) [2, 11]: 1862 mm^3 | Tumor inhibition [2, 12]: 84% | Tumor volume (median) [2, 12]: 550 mm^3 | Tumor inhibition [2, 13]: 95% | Tumor volume (median) [2, 13]: 172 mm^3 | Tumor inhibition [2, 14]: 97% | Tumor volume (median) [2, 14]: 108 mm^3 | Tumor inhibition [3, 15]: 40% | Tumor weight (median) [3, 15]: 303 mg | Tumor inhibition [3, 16]: 60% | Tumor weight (median) [3, 16]: 202 mg | Tumor inhibition [4, 17]: 37% | Tumor volume (median) [4, 17]: 162 mm^3 | Tumor inhibition [4, 18]: 58% | Tumor volume (median) [4, 18]: 108 mm^3 | Tumor inhibition [4, 19]: 51% | Tumor volume (median) [4, 19]: 126 mm^3 | Tumor inhibition [5, 18]: 30% | Tumor weight (median) [5, 18]: 160 mg | Tumor inhibition [5, 19]: 35% | Tumor weight (median) [5, 19]: 150 mg | Tumor inhibition [6, 15]: 68% | Tumor volume (median) [6, 15]: 1059 mm^3 | Tumor inhibition [6, 16]: 49% | Tumor volume (median) [6, 16]: 1705 mm^3
